From ChEMBL document CHEMBL1201862, “PubChem BioAssay data set” (2004) come the findings set out here.

Holding throughout (experiment): NCI anticancer screen, dose series, 48 h
The test system of test [1] is CCRF-CEM.
Test [2] relates to NCI-H226.
Test [3] relates to M14.
The subject of test [4] is SN12C.
The subject of test [5] is Hs-578T.
The subject of test [6] is K562.
For test [7], the system named is MOLT-4.
Test [8] deals with UO-31.
The test system of test [9] is U-251.
Test [10] deals with SK-OV-3.
Test [11] deals with HCT-116.
In test [12] the test system is HOP-92.
In test [13] the test system is HCT-15.
Test [14] deals with 786-0.
Test [15] deals with MDA-MB-231.
Test [16] relates to OVCAR-4.
For test [17], the system named is KM12.
Test [18] has as its system UACC-257.
In test [19] the test system is T47D.
The subject of test [20] is SK-MEL-5.

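Step 1: Grow cells in 96-well plates. Step 2: Expose to compound for 48 hours at 5 concentrations. Step 3: Interpolate endpoints linearly; if unreached, use highest concentration. GI50 is the concentration that inhibits growth by half.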 Activity calls are given as the source filed them. Cut-off read from the data, not from the text of the source: active = GI50 up to about 1.1 µM and inactive = higher. Bounds are passed on as bounds.

Turning to `O=Cc1cc(O)c(O)c(/C=N/n2c3ccccc3c3ccccc32)c1`, the GI50 in test [1] was 1.58 µM (inactive); in test [2], 12.6 µM (inactive); in [3], 6.1 µM (inactive); in test [4], 4.56 µM (inactive); in [5], 19.3 µM (inactive); in [6], 4.11 µM (inactive). The GI50 in [7] was 2.54 µM (inactive); in [8], 5.58 µM (inactive); in [9] it was 6.14 µM (inactive); in [10], 6.55 µM (inactive); in test [11] it was 3.37 µM (inactive); in test [12], 2.72 µM (inactive). The GI50 was 2.18 µM in [13]; 4.41 µM (inactive) in [14]; 7.1 µM (inactive) in test [15]; 2.17 µM (inactive) in test [16]; 7.76 µM (inactive) in test [17]; 11.7 µM (inactive) in test [18]. Also, in test [19], the GI50 is 5.64 µM (inactive).
As for `CC1=CC[C@H](C[C@H](C#CCCCC2OCCO2)O[Si](C(C)C)(C(C)C)C(C)C)C(=O)CC1`, the GI50 in [1], in test [2], in test [3], in [4], in [5] and in test [6] was > 100 µM (inactive) in each case. Besides, the GI50 in test [7], in test [8], in test [9], in test [10], in [11] and in test [12] was > 100 µM (inactive) each time. Besides, the GI50 in test [13] is greater than 100 µM; in test [14], > 100 µM (inactive); in test [15], > 100 µM (inactive); in [16] it was > 100 µM (inactive); in test [17], > 100 µM (inactive); in [20] it was > 100 µM (inactive). Moreover, the GI50 in test [18] and in test [19] was > 100 µM (inactive) throughout.
On to `O=C(c1ccccc1)c1c2ccccn2c2cccc[n+]12`, for which the GI50 in test [1], in [2], in test [3], in test [5], in [6] and in test [7] was > 100 µM (inactive) each time. In addition, the GI50 is > 100 µM (inactive) in test [9]; > 100 µM (inactive) in test [10]; > 100 µM (inactive) in test [11]; > 100 µM (inactive) in test [12]; greater than 100 µM in test [13]; > 100 µM (inactive) in test [14]. Further, the GI50 is > 100 µM (inactive) in [15]; > 100 µM (inactive) in [16]; > 100 µM (inactive) in test [17]; 47 µM (inactive) in test [20]; > 100 µM (inactive) in test [18]; > 100 µM (inactive) in test [19].
With `COc1cc2c(cc1OC)C1C3CCCCC3CCN1CC2` (centres undefined), the GI50 is > 100 µM (inactive) in [1]; 88.1 µM (inactive) in test [2]; 62.7 µM (inactive) in test [4]; > 100 µM (inactive) in test [5]; > 100 µM (inactive) in test [6]; > 100 µM (inactive) in test [7]. For the same compound, the GI50 in test [9] was > 100 µM (inactive); in test [10], > 100 µM (inactive); in [11], 48.6 µM (inactive); in test [12] it was > 100 µM (inactive); in test [13] it was greater than 100 µM; in [14], 88.5 µM (inactive). Besides, the GI50 in test [15], in [16], in test [17], in test [20], in test [18] and in test [19] was > 100 µM (inactive) each time.
For the compound `COC(=O)c1cc2c(c(C(=O)OC)c1)CCC2`, the GI50 in test [1] is 50.8 µM (inactive); in test [3], > 100 µM (inactive); in [5], > 100 µM (inactive); in test [6] it was 59 µM (inactive); in [7], 37.2 µM (inactive); in test [8], 85.7 µM (inactive). Moreover, the GI50 was > 100 µM (inactive) in test [9]; > 100 µM (inactive) in test [10]; 76.6 µM (inactive) in [11]; 49.9 µM (inactive) in test [12]; 63.1 µM in test [13]; > 100 µM (inactive) in test [14]. Also, the GI50 in test [15] was 82.8 µM (inactive); in test [16] it was > 100 µM (inactive); in test [20], 56.1 µM (inactive); in test [18], > 100 µM (inactive); in [19], 63.5 µM (inactive).
In the case of `Cc1c(/C=N/NC(=S)Nc2ccccc2)c(=O)n(-c2ccccc2)n1C`, the GI50 in [1] was 48 µM (inactive); in [2] it was > 100 µM (inactive); in [3] it was > 100 µM (inactive); in test [5], > 100 µM (inactive); in test [6], 31.2 µM (inactive); in [7], > 100 µM (inactive). For the same compound, the GI50 was 57.5 µM (inactive) in test [8]; > 100 µM (inactive) in [9]; > 100 µM (inactive) in test [10]; > 100 µM (inactive) in test [11]; > 100 µM (inactive) in [12]; 47.5 µM in test [13]. In addition, the GI50 in test [14], in test [15], in [16], in test [17], in [20] and in [18] was > 100 µM (inactive) throughout. Besides, the GI50 in [19] is > 100 µM (inactive).
Take `CCOC(=O)c1cc(Sc2ccc(N)c(C(=O)OCC)c2)ccc1N`: the GI50 is 28 µM (inactive) in test [1]; 16.7 µM (inactive) in test [2]; > 100 µM (inactive) in test [3]; 18 µM (inactive) in test [4]; 21.5 µM (inactive) in test [5]; 7.98 µM (inactive) in test [6]. Further, the GI50 in test [7] was 8.24 µM (inactive); in test [9], 27.9 µM (inactive); in test [10], > 100 µM (inactive); in [11], > 100 µM (inactive); in test [12], 58.2 µM (inactive); in test [13], greater than 100 µM. Also, the GI50 is 26.4 µM (inactive) in test [14]; 14.4 µM (inactive) in test [15]; 17.8 µM (inactive) in test [16]; 5.62 µM (inactive) in test [17]; > 100 µM (inactive) in [20]; > 100 µM (inactive) in test [18]. Also, the GI50 in test [19] was > 100 µM (inactive).
In the case of `C=C1C(=O)C2(C)OC2(C)C1C(=O)O` (centres undefined), the GI50 in test [1], in [2], in test [3], in test [4], in test [5] and in test [6] was > 100 µM (inactive) throughout. Moreover, the GI50 in test [8] is > 100 µM (inactive); in test [9], > 100 µM (inactive); in test [10], > 100 µM (inactive); in test [11], > 100 µM (inactive); in test [12], > 100 µM (inactive); in [13], greater than 100 µM. The GI50 in [14], in [15], in test [16], in test [17], in [20] and in [18] was > 100 µM (inactive) each time. Also, in test [19], the GI50 was > 100 µM (inactive).
For the compound `Cc1ccc2c(c1)SC1=Nc3sc4cc(C)ccc4[n+]3CN12`, the GI50 is 15.8 µM (inactive) in [2]; 3.59 µM (inactive) in test [3]; 7.16 µM (inactive) in [4]; 6.87 µM (inactive) in [5]; < 0.01 µM (active) in test [7]; 35.6 µM (inactive) in [8]. The GI50 is 2.58 µM (inactive) in test [9]; 31.8 µM (inactive) in [10]; 10.5 µM (inactive) in [11]; 2.97 µM (inactive) in test [12]; 40.5 µM in [13]; 32.2 µM (inactive) in test [14]. The GI50 was 10.8 µM (inactive) in test [15]; 2.51 µM (inactive) in test [16]; 1.07 µM (active) in test [20]; 2.18 µM (inactive) in test [18]; 1.34 µM (inactive) in test [19].
Consider `Cc1occc1C(=S)Nc1ccc(Cl)c(C(=O)OC(C(C)C)C(C)C)c1`, for which the GI50 in test [1] was 7.16 µM (inactive); in test [2] it was 15.2 µM (inactive); in test [3] it was 12.7 µM (inactive); in test [4] it was 14.9 µM (inactive); in test [5], 17.6 µM (inactive); in test [7] it was 5.32 µM (inactive). Besides, the GI50 in [8] was 5 µM (inactive); in [9] it was 10.8 µM (inactive); in [10], 18.4 µM (inactive); in test [11] it was 10.1 µM (inactive); in test [12] it was 7.82 µM (inactive); in test [13] it was 13.1 µM. In addition, the GI50 in [14] was 13.7 µM (inactive); in [15], 12.6 µM (inactive); in test [16] it was 14.7 µM (inactive); in test [17], 12.5 µM (inactive); in test [20] it was 14.6 µM (inactive); in [18], 4.85 µM (inactive). Also, the GI50 in test [19] is 4.49 µM (inactive).
Consider `C(CCc1nnc2c(n1)CCCC2)Cc1nnc2c(n1)CCCC2`, for which the GI50 in [1], in [2], in test [3], in [4], in test [5] and in test [6] was > 100 µM (inactive) each time. In addition, the GI50 in test [7], in [8], in test [9], in test [10], in [11] and in [12] was > 100 µM (inactive) throughout. The GI50 is greater than 100 µM in test [13]; > 100 µM (inactive) in test [14]; > 100 µM (inactive) in [15]; > 100 µM (inactive) in [16]; > 100 µM (inactive) in [17]; > 100 µM (inactive) in [20]. The GI50 in [19] was > 100 µM (inactive).
